Where two headings read alike, the source gives them in different places.
Tests used:
Format in all cases: cell-based
Kyn levels in HeLa cells = experiment: Manual Kyn assay in HeLa cells (p-DMAB detection); settings: IFN-γ, L-Trp, compounds 48 h, p-DMAB, mean n=3 ±SD, read-out: Kyn Assay IC50
Description: Mammalian cell lines were maintained at 37°C and 5% CO2 in a humidified atmosphere and sub-cultivated twice a week. All cell lines were tested regularly for mycoplasma contamination and were always free of mycoplasma. BxPC-3 cells (DSMZ#760) were grown in RPMI-1640 medium supplemented with 10% FBS, 2 mM L-glutamine, 1 mM sodium pyruvate, 4.5 g/L glucose, 10 mM HEPES and 1.5 g/L NaHCO3. HeLa cells (DSMZ#57) were cultivated in DMEM supplemented with 10% FBS, 4.5 g/L glucose, 4 mM L-glutamine 1 mM sodium pyruvate, 1% non-essential amino acids, 3.7 g/L NaHCO3. SKOV-3 cells (ATCC#HTB-77) were maintained in modified McCoy’s 5A medium supplemented with 10% FBS, 1.5 mM L-glutamine and 2.2 g/L NaHCO3. […]
For manual testing, BxPC-3, HeLa or SKOV-3 cells (20,000 cells/well, 5,000 cells/well or 6,250 cells/well, respectively) were seeded in 96-well plates (BxPC-3 and HeLa) or 384-well plates (SKOV-3) in medium without phenol red. After 24 h, the IDO1 pathway was induced by addition of 50 ng/mL (BxPC-3 and HeLa) or 17.6 ng/mL IFN-γ (SKOV-3) and 380 µM (BxPC-3), 164.15 µM (HeLa) or 450 µM L-Trp (SKOV-3) with simultaneous treatment with the compounds at the indicated concentrations followed by incubation for 48 h. For the hemin competition assay, hemin was added together with IFN-γ, L-Trp and the compounds. Subsequently, trichloroacetic acid was added to a final concentration of 7% (v/v), the plates were incubated for 15 min at room […]
temperature and centrifuged for 10 min at 1800 x g. Afterwards, an equal volume of freshly prepared 2% (w/v) p-DMAB in glacial acetic acid (Ehrlich reagent) was added prior to measuring the absorbance at 492 nm and 650 nm on the Spark® Multimode Microplate Reader (Tecan, AT).
To determine the Kyn levels, the absorbance of the Kyn-p-DMAB adduct A492 was subtracted by the background absorbance A650 and normalized to the DMSO control. Data analysis was performed using a non-linear regression curve fit and GraphPad Prism 9.0 (GraphPad Software, Inc, US) to generate dose-response curves and obtain IC50 values. […]
Subsequently, 10 mM ascorbic acid, 10 μM methylene blue, 2 mM L-Trp and 100 μg/mL catalase were added and samples were incubated for 60 min at room temperature or 37°C. […]

[1] = test system: Kyn levels in BxPC-3 cells; experiment: Automated (high-throughput) Kyn assay in BxPC-3 cells (Kyn sensor); settings: Homo sapiens, BXPC-3; footnote e: value from automated Kyn Assay
Description: Mammalian cell lines were maintained at 37°C and 5% CO2 in a humidified atmosphere and sub-cultivated twice a week. All cell lines were tested regularly for mycoplasma contamination and were always free of mycoplasma. BxPC-3 cells (DSMZ#760) were grown in RPMI-1640 medium supplemented with 10% FBS, 2 mM L-glutamine, 1 mM sodium pyruvate, 4.5 g/L glucose, 10 mM […]
HEPES and 1.5 g/L NaHCO3. […]
High-throughput Kyn assay
Automated screening for modulators of Kyn levels in BxPC-3 cells was performed as published earlier.[2] Briefly, BxPC-3 cells (1,000 cells/well) were seeded in black 1536-well plates prior to incubation for 24 h and subsequent treatment with compounds, 380 µM L-Trp and 50 ng/mL IFN-γ for 48 h. Afterwards, trichloroacetic acid was added to a final concentration of 7% (v/v), the plates were incubated for 10 min at 37°C and centrifuged for 10 min at 1620 x g. Kyn was detected by addition of 17.5 µM Kyn sensor[14] in assay buffer (excitation: 535 nm, emission: […]

[2] = test system: L-Trp uptake in BxPC-3 cells; experiment: Trp uptake assay in BxPC-3 cells (HPLC-MS/MS); settings: BxPC-3 starved for L-Trp 72 h, ±IFN-γ; 5 mM L-Leu, 1 mM 1-MT, 5 µM compound
Description: GraphPad Prism 9.0 (GraphPad Software, Inc, US) to generate dose-response curves and obtain […]
IDO1 promoter reporter gene assay
HEK293T cells (25,000 cells/well) were reverse-transfected with pXPG-IDO1[16] (4 µg/96-well plate, kindly provided by Gina M. Doody, Leeds, UK) and pRL-TK (300 ng/96-well plate, Promega, US) using Lipofectamine™ 2000 (Invitrogen, USA) pri or to incubation for 24 h. Afterwards, cells were treated with 50 ng/mL IFN-γ and the compounds for 48 h. Luminescence generated by the Fluc reporter and the control reporter Rluc was measured using the Dual-Glo ® Luciferase Assay System (Promega, US) on the Spark® Multimode Microplate Reader (Tecan, AT). To determine the IDO1 promoter activity, Fluc signals were divided by Rluc signals and normalized to the values of the DMSO control. Data analysis was performed using a non-linear regression curve fit and […]
BxPC-3 cells (30,000 cells/well) were seeded in 96-well plates in Trp-free RPMI 1640 medium and incubated for 48 h prior addition of 50 ng/mL IFN-γ. Trp starvation was continued for another 24 h. Afterwards, medium was exchanged for Trp-free medium containing the control inhibitors 5 mM L-Leu (inhibitor of system-L amino acid transporters (LAT)), 1 mM 1-methyl-L-tryptophan (inhibitor of tryptophanyl-tRNA synthetase (TrpRS)) and compounds and cells were incubated for 30 min. Subsequently, 50 µM L-Trp was added and samples were incubated for another 30 min.
The supernatant was transferred to a new plate, trichloroacetic acid was added to a final concentration of 7% (v/v) and plates were incubated for 15 min at room temperature. Samples were centrifuged for 10 min at 1800 x g and L-Trp was quantified by HPLC-MS/MS using the LTQ Velos Pro and Dionex HPLC (Thermo Fisher Scientific, US). Data analysis was performed with Xcalibur™ (Thermo Fisher Scientific, US) and repres ented using GraphPad Prism 9.0 (GraphPad […]
RNA purification and RT-qPCR
HeLa cells (250,000 cells/well) were seeded in 6-well plates and incubated for 24 h prior addition of 50 ng/mL IFN-γ and compounds. […]

Row | Compound | IC50 (Kyn levels in HeLa cells; Homo sapiens, HeLa, 48 h) [µM] | further results
1 | CCOC(=O)C1=CC[C@@](C(=O)OC)(c2cc3ccccc3n2C)N(S(=O)(=O)c2ccccc2[N+](=O)[O-])[C@H]1C(=O)OCC [3a^a] | > 10 | –
2 | CCOC(=O)C1=CC[C@H](c2cc3ccccc3n2C)N(S(=O)(=O)c2ccc(C)cc2)[C@@H]1C(=O)OC(C)(C)C [3e^e] | – | IC50 [1]: 0.26 ± 0.05 µM
3 | Cn1cc(C[C@H](N)C(=O)O)c2ccccc21 [Compound 1-MT, 1-methyl-L-tryptophan] | – | uptake (import) of L-Trp [2]: inhibit the uptake
4 | CCOC(=O)C1=CC[C@H](c2cc3ccccc3n2C)N(S(=O)(=O)c2ccccc2[N+](=O)[O-])[C@@H]1C(=O)OC(C)(C)C [Compound 3c] | – | IC50 (Kyn levels in HeLa cells; listed as 3c^b): 0.48 ± 0.06 µM; IC50 (Kyn levels in HeLa cells): 1.04 ± 0.08 µM
5 | CCOC(=O)C1=CC[C@](C(=O)OC)(c2cc3ccccc3n2C)N(S(C)(=O)=O)[C@@H]1C(=O)OC(C)(C)C [Compound 3f] | 0.08 ± 0.01 | IC50 (Kyn levels in HeLa cells; listed as 3f^bc): 0.09 ± 0.01 µM
6 | CCOC(=O)C1=CC[C@](C(=O)OC)(c2cc3ccccc3n2C)N(S(=O)(=O)c2ccccc2)[C@@H]1C(=O)OC(C)(C)C [Compound 3g] | 0.08 ± 0.01 | –
7 | CCOC(=O)C1=CC[C@](C(=O)OC)(c2cc3ccccc3n2C)N(S(=O)(=O)c2ccc(Br)cc2)[C@@H]1C(=O)OC(C)(C)C [Compound 3h] | 0.43 ± 0.15 | –
8 | CCOC(=O)C1=CC[C@](C(=O)OC)(c2cc3ccccc3n2C)N(S(=O)(=O)c2cccc(C(F)(F)F)c2)[C@@H]1C(=O)OC(C)(C)C [Compound 3i] | 1.54 ± 0.41 | –
9 | CCOC(=O)[C@@H]1C(C(=O)OC(C)(C)C)=CC[C@](C(=O)OC)(c2cc3ccccc3n2C)N1S(=O)(=O)c1ccc(C)cc1 [Compound 3j] | 0.76 ± 0.04 | –
10 | CCOC(=O)[C@@H]1C(C(=O)OC(C)(C)C)=CC[C@H](c2cc3ccccc3n2C)N1S(=O)(=O)c1ccc(C)cc1 [Compound 3k] | 1.63 ± 0.16 | –
11 | COC(=O)[C@]1(c2cc3ccccc3n2C)CC=C(C(=O)OCc2ccccc2)[C@@H](C(=O)OC(C)(C)C)N1S(=O)(=O)c1ccccc1[N+](=O)[O-] [Compound 3l] | – | IC50 (Kyn levels in HeLa cells; listed as 3l^a): 2.88 ± 0.13 µM; IC50 (Kyn levels in HeLa cells): 1.39 ± 0.09 µM
12 | COC(=O)[C@]1(c2cc3ccccc3n2C)CC=C(C(=O)OC(C)(C)C)[C@@H](C(=O)OC(C)(C)C)N1S(=O)(=O)c1ccccc1[N+](=O)[O-] [Compound 3o] | – | IC50 (Kyn levels in HeLa cells; listed as 3o^a): 0.82 ± 0.7 µM; IC50 (Kyn levels in HeLa cells; listed as 3o^b): 0.16 ± 0.05 µM; IC50 (Kyn levels in HeLa cells): 0.65 ± 0.08 µM
13 | CC(C)C[C@H](N)C(=O)O [L-Leu, L-leucine] | – | uptake (import) of L-Trp [2]: inhibit the uptake

Continued, in another order:

Row | IC50 (Kyn levels in HeLa cells; Homo sapiens, HeLa, 48 h) [µM] | Compound | further results
14 | 2.46 ± 0.29 | CCOC(=O)[C@@H]1C(C(=O)OC(C)(C)C)=CC[C@](C(=O)OC)(c2cc3ccccc3n2C)N1S(=O)(=O)c1ccccc1[N+](=O)[O-] [Compound 3m] | –
15 | 7.52 ± 0.8 | CCOC(=O)C1=CC[C@](C(=O)OC)(c2cc3ccccc3n2C)N(S(=O)(=O)c2ccccc2[N+](=O)[O-])[C@@H]1C(=O)OCc1ccccc1 [Compound 3n] | –
16 | 1.65 ± 0.23 | COC(=O)[C@]1(c2cc3ccccc3n2C)CC=C(C(=O)OCc2ccccc2)[C@@H](C(=O)OC(C)(C)C)N1S(=O)(=O)c1ccc(C)cc1 [Compound 3p] | –
17 | 0.11 ± 0.02 | CCOC(=O)C1=CC[C@](C(=O)OC)(c2cc3ccccc3n2C)N(S(=O)(=O)c2ccc(F)cc2)[C@@H]1C(=O)OC(C)(C)C [Compound 3q] | –
18 | 0.89 ± 0.19 | Cn1c([C@H]2CC=C(C(=O)OCc3ccccc3)[C@@H](C(=O)OC(C)(C)C)N2S(=O)(=O)c2ccccc2[N+](=O)[O-])cc2ccccc21 [Compound 3r] | –
